What all share (format): cell-based, human
Assay [1] relates to U251-MG cells. Description: Cell viability / proliferation, Trypan blue exclusion, U251-MG. The note with it: DMEM/10% FBS, 100 nM peptide, 24, 48 and 72 h. Here is the method: (§1) Cell viability was tested in DMEM/10% FBS in the presence of 100 nM uPAcyclin or Ala peptides via a Trypan blue exclusion assay, as previously reported, using 4 × 10^4 U87-MG and U251-MG glioblastoma cells/sample followed for 24, 48 and 72 h.
(§2) To rule out the possibility that the effects of uPAcyclin and Ala peptides could be due to the inhibition of cell proliferation, cell growth in the presence of these peptides was monitored for 24, 48 and 72 h (Supporting Information, Figure S2). U87-MG and U251-MG cells were exposed to diluents or to serum in the presence of 100 nM uPAcyclin, [Ala^1]uPAcyclin, [Ala^4]uPAcyclin, [Ala^8]uPAcyclin and [Ala^2,Ala^5]uPAcyclin (for the peptide choice, see above), and cell viability was tested at the indicated times using Trypan blue (Figure S2A,B). Both cell lines proliferate in culture in the presence of serum (DMEM/10% FBS), but not in a serum-free medium (DMEM). The growth rates of the U87-MG and U251-MG glioblastoma cell lines were similar, regardless of the exposure to 100 nM of uPAcyclin, [Ala^1]uPAcyclin, [Ala^4]uPAcyclin and [Ala^8]uPAcyclin.
(§3) Figure S5. Cell Viability Assay.
(§4) Unaffected proliferation of U87-MG and U251-MG glioblastoma cells exposed to uPacyclin and selected Ala-peptides. 2x104 U87-MG (A) or U251-MG (B) were seeded in 12 well plates for 24 h in DMEM-10% FBS and serum-starved for 24 h. Then, cells were counted (0 h) and grown in DMEM (no serum) or DMEM-10% FBS, in the presence of 100 nM peptides for 24, 48 and 72 h. Histograms represent the average of two separate experiments undertaken in duplicate.
(§5) (1 picture or pasted object on this page, not shown here)

In assay [2] the test system is U87-MG cells. As to the kind of experiment: Cell viability / proliferation, Trypan blue exclusion, U87-MG. The conditions noted are these: DMEM/10% FBS, 100 nM peptide, 24, 48 and 72 h. Here is the method:
as §1, §2, §3, §4, §5

For assay [3], the system named is U251-MG cells. Description: Vasculogenic mimicry (tube formation) assay, U251-MG on Geltrex. The note with it: 24 h. The method, then:
(§6) The tube formation assay was performed as previously described by Franco et al., using 3 × 10^4 U87-MG and 1.5 × 10^4 U251 cells/sample in the absence or presence of specific effectors included at time 0. The evaluation of vascular-like structures, as the branching points number, was performed using the Inverted Microscope DMI Leica 6000 ([…], Milan, Italy) and assessed in 4/5 random fields using the ImageJ 1.52a Software.
(§7) Here, U87-MG cells were plated onto Geltrex^TM, and the formation of round vascular-type structures was assessed after 24 h (Figure 6A). […] If cells are pretreated with nanomolar concentrations of the indicated cyclic peptides for 40 min at 37 °C prior to the VM assay, the number of intersections decreases. For this assay, the peptides [Ala^2, Ala^5]uPAcyclin, [Ala^1]uPAcyclin [Ala^4]uPAcyclin and [Ala^8]uPAcyclin, in addition to the parent uPAcyclin, were selected based on previous considerations. In the histogram shown in Figure 6B, the number of intersections per field is reported for untreated or peptide-exposed samples. As a reference, the uPAcyclin is indeed able to reduce vessel formation by 40% at 1 nM and by 70% at 100 nM. […] [Ala^2,Ala^5]uPAcyclin and [Ala^8]uPAcyclin are able to reduce VM by 50% at 1 nM and by 70% at 100 nM, confirming that they are both efficient inhibitors of GBM functions supporting malignancy. The formation of VM was also monitored in U251-MG cells, which were seeded under the same conditions employed for U87-MG cells. Representative images, reported in Figure 7A, show the elongated structures obtained after 24 h in Geltrex^TM matrix and their reduction in the cells pre-exposed to uPAcyclin, [Ala^2,Ala^5]uPAcyclin and [Ala^8]uPAcyclin. As shown in the histogram reported in Figure 7B, the uPAcyclin is indeed able to reduce vessel formation by 50% at 1 nM and by 80% at 100 nM. […] It is of note that, unlike [Ala^2,Ala^5]uPAcyclin or [Ala^8]uPAcyclin, [Ala^1]uPAcyclin is ineffective, even if employed at 100 nM.
Figure 7 Inhibition of vasculogenic mimicry by U251-MG glioblastoma cells. (A) Representative images of U251-MG cells cultured in DMEM/10% FBS (no matrix) or seeded onto Geltrex^TM in multiwell-96 (1.5 × 10^4 cells/well). When specified, cells were pretreated with diluents (untreated) or with the indicated peptides at the indicated concentrations for 40 min at 37 °C prior to the VM assay. All images are taken after 24 h with the DMI Leica 6000 Inverted Microscope with 50× total magnification; scale bar: 100 μm. (B) The quantitation and expression of branching points (red arrows), is accomplished as reported in the legend of Figure 6 (*** p-value < 0.001).

For assay [4], the system named is U87-MG cells. The note with it: 24 h; for reduction of vessel formation (VM, branching points): U87-MG on Geltrex. Here is the method:
as §6, §7
Figure 6 Inhibition of vasculogenic mimicry by U87-MG glioblastoma cells. (A) Representative images of U87-MG cells cultured in DMEM/10% FBS (no matrix) or seeded onto Geltrex^TM in multiwell-96 (3 × 10^4 cells/well). When specified, cells were pre-treated with diluents (untreated) or with the indicated peptides at the indicated concentrations for 40 min at 37 °C prior to the VM assay. All images are taken after 24 h with the DMI Leica 6000 Inverted Microscope and 50× total magnification; scale bar: 100 μm. (B) The quantitation of branching points, defined as the intersection of at least three tubes (red arrows), was performed at 24 h either in control cells and cells exposed to the peptides and reported in the histogram (** p-value < 0.005; *** p-value < 0.001).

Here are results for 3 molecules from publication PMC11853379, “Glioblastoma Cell Migration, Invasion and Vasculogenic Mimicry Downmodulated by Novel uPAcyclin Derivatives” (Cells, 2025).

Read-outs that look alike come from different tables or passages of the source. Positions of bridges follow the written chain, without caps; N, C: chain ends. Residues, ends and D or L forms follow the SMILES beside them.

As for `CC(=O)N[C@@H](CCCCN)C(=O)N[C@@H](C)C(=O)N[C@H]1CCC(=O)NCCCC[C@@H](C(N)=O)NC(=O)[C@H](CC(C)C)NC(=O)[C@H](CCC(=O)O)NC(=O)[C@H](CCC(=O)O)NC(=O)[C@@H]2CCCN2C(=O)[C@H](C)NC(=O)[C@H](CO)NC1=O` [[Ala^2,Ala^5]uPAcyclin] (Ac-KAESAPEELK-NH2; lactam 3-10), the “growth rate / proliferation rate” value in assay [1] and in assay [2] was “slight but not significant decrease” each time. Moreover, in assay [3], the “inhibition of VM compared to uPAcyclin (in words)” value was “slightly more effective inhibitors”. This molecule also displayed an IC50 in assay [4] of under 1 nM. The entries for the “reduction of vessel formation (VM, branching points)” value (“reduction of vessel formation” below) in assay [4] (1 nM peptide) and in assay [4] (100 nM peptide) were 50% and 70%, respectively.
In the case of `CC(=O)N[C@@H](CCCCN)C(=O)N1CCC[C@H]1C(=O)N[C@H]1CCC(=O)NCCCC[C@@H](C(N)=O)NC(=O)[C@H](CC(C)C)NC(=O)[C@H](C)NC(=O)[C@H](CCC(=O)O)NC(=O)[C@@H]2CCCN2C(=O)[C@@H]2CCCN2C(=O)[C@H](CO)NC1=O` [[Ala^8]uPAcyclin] (Ac-KPESPPEALK-NH2; lactam 3-10), the “growth rate / proliferation rate” value in assay [1] and in assay [2] was “similar” throughout. The “inhibition of VM compared to uPAcyclin (in words)” value in assay [3] is recorded as “slightly more effective inhibitors”. In addition, the IC50 in assay [4] was under 1 nM. Besides, the figures for the “reduction of vessel formation” value in assay [4] (1 nM peptide) and in assay [4] (100 nM peptide) were 50% and 70%, respectively.
Take `CC(=O)N[C@@H](CCCCN)C(=O)N1CCC[C@H]1C(=O)N[C@H]1CCC(=O)NCCCC[C@@H](C(N)=O)NC(=O)[C@H](CC(C)C)NC(=O)[C@H](CCC(=O)O)NC(=O)[C@H](CCC(=O)O)NC(=O)[C@@H]2CCCN2C(=O)[C@@H]2CCCN2C(=O)[C@H](CO)NC1=O` [uPAcyclin] (Ac-KPESPPEELK-NH2; lactam 3-10): the “growth rate / proliferation rate” value in assay [1] and in assay [2] was “similar” each time. Also, the “reduction of vessel formation” value in assay [3] (1 nM peptide) came out at 50%; in assay [3] (100 nM peptide) it was 80%; in assay [4] (1 nM peptide), 40%; in assay [4] (100 nM peptide), 70%.
